According to patent US20040043985A1, “6,6-Fused heteroaryl derivatives as matrix metalloproteinase inhibitors” (priority 2002, published 2004):

Target: T1, hMMP-13CD (Homo sapiens, UniProt P45452)
T1 construct: a human MMP-13 catalytic domain (“hMMP-13CD”)
Assay: Inhibition of MMP-13 catalytic domain (thiopeptolide substrate assay)
Type: biochemical
Source text: The assays measure the amount by which a test compound reduces the hydrolysis of a thiopeptolide substrate catalyzed by a matrix metalloproteinase enzyme. Such assays are described in detail by Ye et al., in Biochemistry, 1992;31(45):11231-11235, which is incorporated herein by reference. One such assay is described below in Biological Method 1.
Thiopeptolide substrates show virtually no decomposition or hydrolysis at or below neutral pH in the absence of a matrix metalloproteinase enzyme. A typical thiopeptolide substrate commonly utilized for assays is Ac-Pro-Leu-Gly-thioester-Leu-Leu-Gly-OEt. A 100 μL assay mixture will contain 50 mM of N-2-hydroxyethylpiperazine-N′-2-ethanesulfonic acid buffer (“HEPES,” pH 7.0), 10 mM CaCl2, 100 μM thiopeptolide substrate, and 1 mM 5,5′-dithio-bis-(2-nitro-benzoic acid) (DTNB). The thiopeptolide substrate concentration may be varied, for example from 10 to 800 μM to obtain Km and Kcat values. The change in absorbance at 405 nm is monitored on a Thermo Max microplate reader (molecular Devices, Menlo Park, Calif.) at room temperature (22° C.). The calculation of the amount of hydrolysis of the thiopeptolide substrate is based on E412=13600 M^−1 cm^−1 for the DTNB-derived product 3-carboxy-4-nitrothiophenoxide. […]

IC50: > 50 µM
Compound: O=C(O)c1ccc(Cn2ccc3ccc(C#CCn4ccnn4)cc3c2=O)cc1 [4-[1-oxo-7-(3-[1,2,3]triazol-1-ylprop-1-ynyl)-1H-isoquinolin-2-ylmethyl]benzoic acid]
